Data published in patent publication US20230286973A1, “PROTEIN SECRETION INHIBITORS” (KEZAR LIFE SCIENCES, priority 2020, published 2023).
Values joined by “and” are separate entries in the source; they are usually repeats but may differ in a detail not shown here. Equal values may be shown once. Read-outs that look alike come from different tables or passages of the source.

Key:
[1] = system: multiple myeloma cell line NCI-H929; test: H929 Cell Viability Assay; format: cell-based, human; conditions: NCI-H929 cells, Celltiter-Glo
Description: The human multiple myeloma cell line NCI-H929 was cultured in Advanced RPMI 1640 media (Gibco®) supplemented with 6% fetal bovine serum, 2 mM Glutamine, and 1× Penicillin/Streptomycin. On the day of assay, cells were resuspended in RPMI 1640 media supplemented with 10% fetal bovine serum, 2 mM Glutamine, and 1× Penicillin/Streptomycin and plated in 384-well tissue culture plates and treated with compound dilutions in DMSO/media. Plates were incubated at 37° C., 5% CO2 for 48 hours. After 48 hours, Celltiter-Glo® (Promega) was added to each well and luciferase signal was quantified using Tecan Infinite M1000 Pro for cell viability determination.
(§1) For chemical structures that include one or more stereoisomers, but are illustrated without indicating stereochemistry, the assay data refers to a mixture of stereoisomers.

[2] = system: PD1-ss+10aa/Gaussia Luciferase; test: Dox-Induced PD1-ss-Gluc Assay; format: cell-based; conditions: 24 hr Dox induction, 293FRT/TO cells, read-out: 24 hr Dox Inducible PD1ssGluc 293FRT/TO: Mean IC50
Source text: Flp-In 293 T-REx™ cells were transfected with pcDNA™5/FRT/TO plasmid inserted with cDNA encoding Gaussia Luciferase fused to the 3′ end of cDNA encoding PD1 signal sequence plus 10 amino acids (N-[…]-C) (SEQ ID NO: 1). Transfected cells were selected for resistance to the selectable markers Hygromycin and Blasticidin to create a stable cell line that contained the PD1-ss+10aa/Gaussia Luciferase cDNA insert whose expression was regulated under the T-REx™ system. The day before assay, cells were trypsinized and plated in 384-well tissue culture plates. The next day, compound dilutions in DMSO/media containing doxycycline were added to the wells and incubated at 37° C., 5% CO2.
as §1

[3] = Liver Microsome Stability Assay (mouse); conditions: mouse liver microsomes, with NADPH, 1.0 uM compound
Description: (§3) Stability of a compound was assessed in the presence of liver microsomes from various sources—mouse, rat, monkey and human liver microsomes. 1.0 uM compound, 0.4% DMSO in 0.1 M Potassium Phosphate with 1.0 mg/mL liver microsomes, were incubated at 37° C. with or without 1 mM NADPH. The samples were quenched at 0, and 30 minutes.

[4] = Liver Microsome Stability Assay (rat); conditions: rat liver microsomes, with NADPH, 1.0 uM compound
Description: as §3

[5] = system: IL-2-FL/Gaussia Luciferase; test: Dox Induced IL2-FL-Gluc Assay; format: cell-based; conditions: for IC50: 24 hr Dox induction, 293FRT/TO cells, read-out: 24 hr Dox Inducible IL2FLGluc 293FRT/TO: Mean IC50; for 24 hr Dox Inducible IL2FLGluc 293FRT/TO: IL2/PD1: ratio of IL2FLGluc IC50 to PD1ssGluc IC50
Source text: (§2) Flp-In 293 T-REx™ cells were transfected with pcDNA™5/FRT/TO plasmid inserted with cDNA encoding Gaussia Luciferase fused to the 3′ end of cDNA encoding full length IL-2 (amino acids 1-153). Transfected cells were selected for resistance to the selectable markers Hygromycin and Blasticidin to create a stable cell line that contained the IL-2-FL/Gaussia Luciferase cDNA insert whose expression was regulated under the T-REx™ system. The day before assay, cells were trypsinized and plated in 384-well tissue culture plates. The next day, compound dilutions in DMSO/media containing doxycycline were added to the wells and incubated at 37° C., 5% CO2.
as §1

[6] = Liver Microsome Stability Assay (human); conditions: human liver microsomes, with NADPH, 1.0 uM compound
Description: as §3

[7] = system: multiple myeloma cell line U266B1; test: U266 Cell Viability Assay; format: cell-based, human; conditions: Homo sapiens, U-266, 48 h, U266B1 cells, Celltiter-Glo
Description: The human multiple myeloma cell line U266B1 was cultured in RPMI 1640 media supplemented with 10% fetal bovine serum, 2 mM Glutamine, and 1× Penicillin/Streptomycin. Cells were plated in 384-well tissue culture plates and treated with compound dilutions in DMSO/media. Plates were incubated at 37° C., 5% CO2 for 48 hours. After 48 hours, Celltiter-Glo® (Promega) was added to each well and luciferase signal was quantified using Tecan Infinite M1000 Pro for cell viability determination.
as §1

[8] = Liver Microsome Stability Assay (monkey); conditions: monkey liver microsomes, with NADPH, 1.0 uM compound
Description: as §3

[9] = system: TNFα-FL/Gaussia Luciferase; test: Dox Induced TNFα-FL-Gluc Assay; format: cell-based
Source text: as §2, with “TNFα” for “IL-2”, “1-233).” for “1-153).”, “TNFα-FL/Gaussia” for “IL-2-FL/Gaussia”
as §1

[10] = '<=>' given where both are I.A.

Row | EC50 ([1]; Homo sapiens, NCI-H929, 48 h) [µM] | IC50 [2] [µM] | Liver Microsome Stability (Multiple Species): Mouse - % Remaining after 30 min w/NADPH [3] | Liver Microsome Stability (Multiple Species): Rat - % Remaining after 30 min w/NADPH [4] | IC50 [5] [µM] | Liver Microsome Stability (Multiple Species): Human - % Remaining after 30 min w/NADPH [6] | EC50 [7] [µM] | Liver Microsome Stability (Multiple Species): Monkey - % Remaining after 30 min w/NADPH [8] [%] | IC50 ([2]; mean) | IC50 ([5]; mean) [µM] | EC50 ([1]; 48 hr) [µM] | IC50 ([9]; 24 hr Dox induction, 293FRT/TO cells, mean, read-out: 24 hr Dox Inducible TNFaFLGluc 293FRT/TO: Mean IC50) [µM] | SMILES | 24 hr Dox Inducible IL2FLGluc 293FRT/TO: IL2/PD1 [5] | 24 hr Dox Inducible IL2FLGluc 293FRT/TO: IL2/PD1 [5, 10] | 24 hr Dox Inducible TNFaFLGluc 293FRT/TO: TNF/PD1 ([9]; ratio of TNFaFLGluc IC50 to PD1ssGluc IC50, '<=>' given where both are I.A.)
1 | 0.519 | 0.00722 | 19.8% | 0.8% | 0.0171 | 0.71% | > 25 | 0.23 | – | – | – | – | O=C(Nc1nc([C@H]2CCCN2c2ccc(-c3ncco3)cc2)cs1)c1cccn1Cc1ccncc1 [Compound A9, (R)-N-(4-(1-(4-(oxazol-2-yl)phenyl)pyrrolidin-2-yl)thiazol-2-yl)-1-(pyridin-4-ylmethyl)-1H-pyrrole-2-carboxamide] | 2.4 | – | –
2 | > 25 | 20.7 | 6.8% | 5.37% | > 25 | 1.91% | > 25 | 0.39 | – | – | – | – | O=C(O)c1ccc(N2CCC[C@@H]2c2csc(NC(=O)c3cccn3Cc3ccncc3)n2)cc1 [Compound A13] | >1.2 | – | –
3 | > 25 | 3.99 | 196% | 137% | > 25 | – | > 25 | 110 | – | – | – | – | CC1=NC(C)(/C=C/c2csc(NC(=O)c3cccn3Cc3ccncc3)n2)CO1 (centres unmarked) [Compound B16] | >6.3 | – | –
4 | – | – | 4.75% | 10.6% | – | 15.3% | – | 15 | – | – | – | – | CC(CC#N)Cn1cccc1C(=O)Nc1nc([C@H]2CCCN2c2ccccc2)cs1 (stereo partly drawn) [Compound C20, 1-(3-cyano-2-methylpropyl)-N-(4-((R)-1-phenylpyrrolidin-2-yl)thiazol-2-yl)-1H-pyrrole-2-carboxamide] | – | – | –
5 | > 25 | – | 60.5% | 12.2% | – | 64% | > 25 | 49 | > 25 µM | > 25 | – | – | O=C(Nc1nc([C@H]2CCCN2c2ccccc2)cs1)c1cccn1CC1CCC(F)(F)CC1 [Compound C21, (R)-1-((4,4-difluorocyclohexyl)methyl)-N-(4-(1-phenylpyrrolidin-2-yl)thiazol-2-yl)-1H-pyrrole-2-carboxamide] | – | – | –
6 | 23.9 | – | 4.86% | 1.26% | – | 3.25% | > 25 | 3.74 | 0.671 µM | 2.63 | – | – | O=C(Nc1nc([C@H]2CCCN2c2ccccc2)cs1)c1cccn1CCCc1c[nH]nn1 [Compound C27, (R)-1-(3-(1H-1,2,3-triazol-5-yl)propyl)-N-(4-(1-phenylpyrrolidin-2-yl)thiazol-2-yl)-1H-pyrrole-2-carboxamide] | – | 3.9 | –
7 | 25 | – | 3.9% and 3.33% | 5.97% and 7.43% | – | 4.81% and 6.52% | > 25 | – | 3 µM and 4.65 µM | – | 23.6 | > 25 | CO[C@@H](CC#N)Cn1cccc1C(=O)Nc1nc([C@H]2CCCN2c2ccccc2)cs1 [Compound C97, 1-((S)-3-cyano-2-methoxypropyl)-N-(4-((R)-1-phenylpyrrolidin-2-yl)thiazol-2-yl)-1H-pyrrole-2-carboxamide] | – | 2.1 and > 3.6 | > 8.34 and > 5.37
8 | 0.762 | – | – | – | – | – | > 25 | – | 0.00953 µM | 0.0229 | – | – | O=C(Nc1nc([C@H]2CCCN2c2ccccc2)cs1)c1cccn1Cc1ccnc(F)c1 [Compound E26, (R)-1-((2-fluoropyridin-4-yl)methyl)-N-(4-(1-phenylpyrrolidin-2-yl)thiazol-2-yl)-1H-pyrrole-2-carboxamide] | – | 2.4 | –
9 | – | – | 1.59% | 1.92% | – | 0.09% | – | 0.09 | – | – | – | – | O=C(Nc1nc([C@H]2CCCN2C2COC2)cs1)c1cccn1Cc1ccncc1 [Compound E49, (R)-N-(4-(1-(oxetan-3-yl)pyrrolidin-2-yl)thiazol-2-yl)-1-(pyridin-4-ylmethyl)-1H-pyrrole-2-carboxamide] | – | – | –
10 | – | – | 1.05% | 6.61% | – | 0.37% | – | 0.17 | – | – | – | – | O=C(NC/C=C/c1csc(NC(=O)c2cccn2Cc2ccncc2)n1)c1ccccc1 [Compound E54, (E)-N-(4-(3-benzamidoprop-1-en-1-yl)thiazol-2-yl)-1-(pyridin-4-ylmethyl)-1H-pyrrole-2-carboxamide] | – | – | –
11 | 21.5 | – | – | – | – | – | > 25 | – | 0.0916 µM | 4.36 | – | – | CC(C)c1cccnc1/C=C/c1csc(NC(=O)c2cccn2Cc2ccncc2)n1 [Compound E56, (E)-N-(4-(2-(3-isopropylpyridin-2-yl)vinyl)thiazol-2-yl)-1-(pyridin-4-ylmethyl)-1H-pyrrole-2-carboxamide] | – | 48 | –
12 | 6.9 | – | – | – | – | – | 9.51 | – | 0.00967 µM | 2.16 | – | – | CC(C)c1ccc(/C=C/c2csc(NC(=O)c3cccn3Cc3ccncc3)n2)nc1 [Compound E57, (E)-N-(4-(2-(5-isopropylpyridin-2-yl)vinyl)thiazol-2-yl)-1-(pyridin-4-ylmethyl)-1H-pyrrole-2-carboxamide] | – | 220 | –
